Measurements published in ChEMBL document CHEMBL1201862, “PubChem BioAssay data set” (2004).
Activity calls are given as the source filed them.

How the values were obtained:
[1] = viability of uninfected HEp-2 cells – cell-based, HTS, cytotoxicity control for RSV inhibitor project, dose response (AID 2410); format: functional; conditions: human respiratory syncytial virus
[2] = target: 26S proteasome non-ATPase regulatory subunit 14 (Homo sapiens, UniProt O00487); assay: inhibition of proteasome subunit RPN11 – biochemical, fluorescence polarization, uHTS hits, confirmation (AID 602368); format: functional
[3] = target: 72 kDa type IV collagenase (Homo sapiens, UniProt P08253); assay: Dose Response validation of uHTS RPN11 inhibitor hits using a MMP-2 Fluorescence assay.; format: functional
Prothrombin = Prothrombin (Bos taurus, UniProt P00735); assay: thrombin protease inhibitors – biochemical, fluorescence polarization, uHTS hits, dose response (AID 602369); format: functional
[4] = NIH-3T3 fibroblast cytotoxicity, dose response, cytotoxicity control, cell-based, fluorescence, Alamar Blue, secondary assay (AID 2327); format: functional;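 note: NIH-3T3 mouse fibroblasts cultured with fluconazole at 8 µg/mL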
[5] = luciferase reporter signal suppression in cells – H4 neuroglioma cells, luminescence, dose response (AID 1990); format: functional, cell-based
[6] = decrease of insulin promoter-GFP reporter – imaging, high-content screening, mouse beta cells (AID 1628); format: functional; conditions: MIN6
BJ [7] = assay: BJ-TERT fibroblast viability loss – cell-based, RAS-independent, luminescence, dose response (AID 1933); format: functional; conditions: Homo sapiens
cells [8] = format: functional, cell-based
[9] = Luminescence Cell-Based Dose Response HTS to Identify Inhibitors of 5'UTR Stem-Loop Driven Prion Protein mRNA Translation in H4 Neuroglioblastoma Cells. [Related pubchem assays: 1827 (Project Summary), 1813 (Primary HTS)]; format: functional
[10] = MIN6 cell viability loss – mouse insulinoma, cytotoxicity control, dose response (AID 2122); format: functional;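 note: confirmatory high-throughput counterscreen run to flag cytotoxic compounds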
[11] = alpha-synuclein stem-loop luciferase translation blockers – H4 neuroglioma cells, luminescence, confirmation (AID 1988); format: functional, cell-based
BJ [12] = assay: cells; format: functional, cell-based; conditions: Homo sapiens
[13] = fluconazole-exposed Candida albicans growth modulators – fluorescence, retest, confirmation (AID 2467); format: functional, cell-based
[14] = Trypanosoma cruzi growth suppression in host cells – NIH3T3 host cells, beta-gal luminescence, confirmation (AID 2044); format: functional, cell-based;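 note: intracellular parasites grown in NIH/3T3 mouse fibroblasts as host cells; luminescent beta-galactosidase reporter signal from transgenic T. cruzi replicating inside host cells; inhibitors lower the luminescence signal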
cells [15] = format: functional, cell-based; remark: listed apart in the source
[16] = NIH3T3 cell viability loss – ATP luminescence, mouse fibroblasts, counter-screen, dose response (AID 2010); format: functional, cell-based;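 note: cells exposed to compound for about 90 hours before reading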
BJ [17] = assay: BJ-TERT-LT-ST fibroblast viability loss – cell-based, RAS-independent, luminescence, dose response (AID 1935); format: functional; conditions: Homo sapiens;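 note: BJ fibroblasts immortalized with TERT plus LT and ST oncogenes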
[18] = DRD fibroblast viability loss – cell-based, non-viral oncogenic, luminescence, dose response (AID 1934); format: functional; conditions: Homo sapiens
HEK293 = assay: EBV LMP1 TES2 canonical NF-kB signalling blockers – cell-based, HEK293, luciferase, cherry-pick, dose response (AID 588343); format: functional; conditions: Homo sapiens
INS1 = assay: INS-1E survival protection against cytokine death – cell-based, luminescence, retest, dose response (AID 449756); format: functional; conditions: Rattus norvegicus;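 note: cell death triggered by IL-1 beta plus TNF-alpha plus IFN-gamma mixture; protective hits raise ATP signal compared with cytokine alone wells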
Cytochrome P450 3A4 = Cytochrome P450 3A4 (Homo sapiens, UniProt P08684);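 note: CYP3A4 tested as one member of a cytochrome P450 panel screen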
[19] = viability loss in HeLa cells – cytotoxicity control for MgcRacGAP inhibitor project, dose response (AID 624300); format: functional
[20] = target: T1, Rac GTPase-activating protein 1 (Homo sapiens, UniProt Q9H0H5); assay: blockers of MgcRacGAP-driven Rac1 GTP hydrolysis – biochemical, ADP Hunter fluorescence, primary and confirmatory, confirmation (AID 624330); format: functional
T1 sequence (Q9H0H5 whole entry): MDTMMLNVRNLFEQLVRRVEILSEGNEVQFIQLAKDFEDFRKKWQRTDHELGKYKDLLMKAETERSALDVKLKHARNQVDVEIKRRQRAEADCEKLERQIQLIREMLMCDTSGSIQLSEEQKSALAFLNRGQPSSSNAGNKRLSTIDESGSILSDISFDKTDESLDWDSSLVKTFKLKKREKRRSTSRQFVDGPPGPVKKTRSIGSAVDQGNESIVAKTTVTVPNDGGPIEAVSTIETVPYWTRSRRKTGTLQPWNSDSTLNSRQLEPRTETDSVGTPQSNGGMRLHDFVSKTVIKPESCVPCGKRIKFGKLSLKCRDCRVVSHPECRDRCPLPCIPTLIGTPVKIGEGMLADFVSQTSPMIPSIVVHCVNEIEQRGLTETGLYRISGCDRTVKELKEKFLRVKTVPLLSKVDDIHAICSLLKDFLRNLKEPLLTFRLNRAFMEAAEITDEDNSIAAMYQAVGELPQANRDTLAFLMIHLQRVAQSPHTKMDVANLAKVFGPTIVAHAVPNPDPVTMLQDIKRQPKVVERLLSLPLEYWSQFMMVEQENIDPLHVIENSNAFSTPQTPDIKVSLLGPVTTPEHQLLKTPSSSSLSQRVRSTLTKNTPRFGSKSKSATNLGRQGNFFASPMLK

CHO-K1 = assay: (§1) Counterscreen for antagonists of the orexin 1 receptor (OX1R; HCRTR1): Homogeneous time resolved fluorescence (HTRF)-based cell-based dose response assay to identify antagonists of the parental CHO-K1 cell line. [Related pubchem assays (depositor defined):AID434989, AID435008, AID463079, AID485270, AID492963, AID492964, AID492965, AID493232, AID504699, AID504701]; format: functional; conditions: Cricetulus griseus
[21] = as §1, with “Fluorescence-based” for “Homogeneous time resolved fluorescence (HTRF)-based”, “cell-based high throughput” for “cell-based”, “CHO” for “CHO-K1”; format: functional
[22] = target: T2, Orexin/Hypocretin receptor type 1 (Homo sapiens, UniProt O43613); assay: Homogeneous Time Resolved Fluorescence (HTRF)-based cell-based high throughput dose response assay for antagonists of the orexin 1 receptor (OX1R; HCRTR1). [Related pubchem assays (depositor defined):AID434989, AID435008, AID463079, AID485270, AID492963, AID492964, AID492965, AID493232, AID504717, AID504718]; format: functional
T2 sequence (O43613 whole entry): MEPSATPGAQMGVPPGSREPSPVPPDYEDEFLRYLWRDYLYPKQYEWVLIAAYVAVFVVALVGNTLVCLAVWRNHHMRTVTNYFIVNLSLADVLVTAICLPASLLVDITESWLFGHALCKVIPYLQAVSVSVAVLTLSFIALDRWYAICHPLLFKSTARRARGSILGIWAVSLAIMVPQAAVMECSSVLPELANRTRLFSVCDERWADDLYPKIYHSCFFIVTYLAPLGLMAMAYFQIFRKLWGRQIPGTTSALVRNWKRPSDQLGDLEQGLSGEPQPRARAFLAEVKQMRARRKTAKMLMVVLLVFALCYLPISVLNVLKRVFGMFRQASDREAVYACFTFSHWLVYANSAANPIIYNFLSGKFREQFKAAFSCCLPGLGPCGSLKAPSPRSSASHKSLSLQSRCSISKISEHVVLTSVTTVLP

[23] = target: T2, Orexin/Hypocretin receptor type 1; assay: Fluorescence-based cell-based high throughput dose response assay for antagonists of the orexin 1 receptor (OX1R; HCRTR1). [Related pubchem assays (depositor defined):AID434989, AID435008, AID463079, AID485270, AID492963, AID492964, AID492965, AID493232, AID504717, AID504718]; format: functional
Orexin receptor type 2 [24] = target: T3, Orexin receptor type 2 (Homo sapiens, UniProt O43614); assay: Counterscreen assay for antagonists of the orexin 1 receptor (OX1R; HCRTR1): Fluorescence-based cell-based dose response assay for antagonists of the orexin 2 receptor (OX2R; HCRTR2), run by assay provider.; format: functional
T3 sequence (O43614 whole entry): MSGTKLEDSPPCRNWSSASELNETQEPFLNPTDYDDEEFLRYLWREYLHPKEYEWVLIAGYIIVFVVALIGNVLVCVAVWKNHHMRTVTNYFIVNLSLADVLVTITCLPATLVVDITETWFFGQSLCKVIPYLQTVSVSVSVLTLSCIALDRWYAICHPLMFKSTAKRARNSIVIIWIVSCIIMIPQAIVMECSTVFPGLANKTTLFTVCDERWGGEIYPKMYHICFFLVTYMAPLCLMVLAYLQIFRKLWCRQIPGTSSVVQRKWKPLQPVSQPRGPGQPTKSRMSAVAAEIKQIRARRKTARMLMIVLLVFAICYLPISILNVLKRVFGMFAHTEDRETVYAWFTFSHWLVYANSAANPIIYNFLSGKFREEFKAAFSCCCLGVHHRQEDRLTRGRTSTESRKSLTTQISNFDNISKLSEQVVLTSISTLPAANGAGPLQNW

Orexin receptor type 2 [25] = target: T3, Orexin receptor type 2; assay: Counterscreen assay for antagonists of the orexin 1 receptor (OX1R; HCRTR1): Homogeneous Time Resolved Fluorescence (HTRF)-based cell-based dose response assay for antagonists of the orexin 2 receptor (OX2R; HCRTR2), run by assay provider.; format: functional
[26] = Luminescence Cell-Based Dose Confirmation HTS to Identify Activators of 5'UTR Stem-Loop Driven Alpha-Synuclein mRNA Translation in H4 Neuroglioblastoma Cells. [Related pubchem assays: 1829 (Project Summary), 1814 (Primary HTS)]; format: functional
[27] = Luminescence Cell-Based Dose Response HTS to Identify Activators of Luciferase Translation or Activity in H4 […] Cells. [Related pubchem assays: 1829 (Project Summary), 1814 (Primary HTS)]; format: functional
H4 = assay: Luminescence Cell-Based Dose Response HTS to Identify Activators of 5'UTR Stem-Loop Driven Prion Protein mRNA Translation in H4 Neuroglioblastoma Cells. [Related pubchem assays: 1829 (Project Summary), 1814 (Primary HTS)]; format: functional; conditions: Homo sapiens
[28] = microbe, parasite or virus in culture; format: functional; conditions: Mycobacterium tuberculosis

26S proteasome non-ATPase regulatory subunit 14, sequence (O00487 whole entry): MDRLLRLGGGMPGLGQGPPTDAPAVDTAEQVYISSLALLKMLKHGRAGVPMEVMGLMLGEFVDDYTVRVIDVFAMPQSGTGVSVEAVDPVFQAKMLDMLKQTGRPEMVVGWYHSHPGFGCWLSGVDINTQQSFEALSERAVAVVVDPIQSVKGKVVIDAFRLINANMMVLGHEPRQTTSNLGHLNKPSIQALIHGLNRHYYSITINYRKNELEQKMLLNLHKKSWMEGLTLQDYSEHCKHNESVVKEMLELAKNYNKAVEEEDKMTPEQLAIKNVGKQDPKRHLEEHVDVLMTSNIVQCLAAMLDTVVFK
72 kDa type IV collagenase, sequence (P08253 whole entry): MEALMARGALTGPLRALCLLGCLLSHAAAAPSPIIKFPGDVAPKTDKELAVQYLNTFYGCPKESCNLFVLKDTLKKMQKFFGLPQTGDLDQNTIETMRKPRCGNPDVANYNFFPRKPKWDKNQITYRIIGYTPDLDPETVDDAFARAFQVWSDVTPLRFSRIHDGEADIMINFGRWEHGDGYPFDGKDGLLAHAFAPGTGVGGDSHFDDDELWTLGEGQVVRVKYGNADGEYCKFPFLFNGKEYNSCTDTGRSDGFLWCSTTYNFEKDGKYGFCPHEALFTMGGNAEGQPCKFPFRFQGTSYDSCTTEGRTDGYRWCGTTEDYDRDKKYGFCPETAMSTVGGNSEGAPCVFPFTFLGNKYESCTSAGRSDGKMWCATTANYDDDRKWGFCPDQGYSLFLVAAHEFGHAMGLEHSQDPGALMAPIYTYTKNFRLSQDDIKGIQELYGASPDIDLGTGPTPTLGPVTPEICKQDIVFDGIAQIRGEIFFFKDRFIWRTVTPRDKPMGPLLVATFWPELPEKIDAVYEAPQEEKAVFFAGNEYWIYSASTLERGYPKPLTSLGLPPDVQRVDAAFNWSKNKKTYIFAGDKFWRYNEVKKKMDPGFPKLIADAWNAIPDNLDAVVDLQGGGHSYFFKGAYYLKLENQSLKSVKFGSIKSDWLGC
Cytochrome P450 3A4, sequence (P08684 whole entry): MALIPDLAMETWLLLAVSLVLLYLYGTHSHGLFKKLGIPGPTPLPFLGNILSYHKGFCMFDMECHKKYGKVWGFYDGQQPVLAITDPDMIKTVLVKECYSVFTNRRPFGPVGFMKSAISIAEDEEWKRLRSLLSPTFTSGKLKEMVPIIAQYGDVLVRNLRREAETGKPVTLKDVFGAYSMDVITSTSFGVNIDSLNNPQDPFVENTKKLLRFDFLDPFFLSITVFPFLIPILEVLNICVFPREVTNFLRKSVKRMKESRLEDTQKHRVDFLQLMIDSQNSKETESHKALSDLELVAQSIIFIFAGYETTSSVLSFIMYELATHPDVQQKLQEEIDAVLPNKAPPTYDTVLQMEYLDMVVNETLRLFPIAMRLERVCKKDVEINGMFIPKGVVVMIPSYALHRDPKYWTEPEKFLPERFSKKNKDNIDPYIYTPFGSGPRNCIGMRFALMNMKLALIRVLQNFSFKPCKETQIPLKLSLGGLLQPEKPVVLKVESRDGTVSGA

## Cc1ccc(C2CC(c3cccs3)=NN2S(=O)(=O)c2ccc(C)cc2)cc1 (stereo not drawn)
[1]
  CC50: > 50 µM (active)
[2]
  IC50: 43.4 µM (active)
[3]
  IC50: > 100 µM (inactive)
Prothrombin
  IC50: 55.9 µM (active)

## COc1ccc(O)c(/C=N/NC(=O)c2ccc(OCc3cccc(Br)c3)cc2)c1
[4]
  EC50: 17.5 µM (inconclusive)
[5]
  EC50: 0.239 µM (active)
[6]
  IC50: 3.56 µM (active)
BJ [7]
  EC50: 9.05 µM (active)
Cells [8]
  EC50: > 350 µM (not active)
[9]
  EC50: 6.79 µM (active)
[10]
  IC50: 2.84 µM (active)
[11]
  EC50: 2.97 µM (active)
BJ [12]
  EC50: 110 µM (active)
[13]
  EC50: > 38 µM (not active)
[14]
  EC50: 0.77 µM (active)
Cells [15]
  EC50: > 350 µM (not active)
[16]
  EC50: 7.23 µM (active)
BJ [17]
  EC50: 20.1 µM (active)
[18]
  EC50: 16.3 µM (active)
HEK293
  AC50: 3.86 µM (active)
INS1
  AC50: 2.61 µM (active)
[2]
  IC50: 37.9 µM (active)
[3]
  IC50: > 100 µM (inactive)
Prothrombin
  IC50: 68.3 µM (active)
Cytochrome P450 3A4
  AC50: 7.08 µM (inconclusive)

## Cc1c(C(=O)N/N=C/c2ccc(O)c(Br)c2)sc(N)c1C#N
[2]
  IC50: 49.8 µM (active)
[3]
  IC50: > 100 µM (inactive)
Prothrombin
  IC50: 48.9 µM (active)
[19]
  CC50: 78.2 µM (active)
[20]
  IC50: 97.3 µM (active)

## CCN(C(=O)CO/N=C/c1ccc(OC)cc1OC)c1c(N)n(Cc2ccccc2)c(=O)[nH]c1=O
CHO-K1
  IC50: > 66.2 µM (inactive)
[21]
  IC50: > 49.7 µM (inactive)
[22]
  IC50: 0.317 µM (active)
[23]
  IC50: 5.93 µM (active)
Orexin receptor type 2 [24]
  IC50: 29 µM (inactive)
Orexin receptor type 2 [25]
  IC50: 1.77 µM (active)

## C(=N\NC1=Nc2cccc3cccc1c23)/c1cccnc1
[26]
  EC50: 0.128 µM (active)
[27]
  EC50: 2.39 µM (active)
H4
  EC50: > 120 µM (not active)
[28]
  CC50: > 40 µM (active)
[2]
  IC50: 11.9 µM (active)
[3]
  IC50: > 100 µM (inactive)
Prothrombin
  IC50: 14 µM (active)
